Reference: PubChem BioAssay (NCI)
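GI50 is the concentration that inhibits growth by half. TGI: concentration producing complete growth inhibition.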

Assays:
Test in all cases: growth of human tumour cells (NCI), 384-well format
SK-MEL-5 melanoma = test system: SK-MEL-5 melanoma
OVCAR-3 ovarian = test system: OVCAR-3 ovarian
RXF 393 renal = test system: RXF 393 renal
CAKI-1 renal = test system: CAKI-1 renal
SK-OV-3 ovarian = test system: SK-OV-3 ovarian
OVCAR-5 ovarian = test system: OVCAR-5 ovarian
A498 renal = test system: A498 renal
PC-3 prostate = test system: PC-3 prostate
IGROV1 ovarian = test system: IGROV1 ovarian
KM12 colon = test system: KM12 colon
SK-MEL-28 melanoma = test system: SK-MEL-28 melanoma
EKVX NSCLC = test system: EKVX NSCLC
HCT-116 colon = test system: HCT-116 colon
HS 578T breast = test system: HS 578T breast
NCI-H23 lung = test system: NCI-H23 lung
786-0 renal = test system: 786-0 renal
A549 NSCLC = test system: A549 NSCLC
DU-145 prostate = test system: DU-145 prostate
SNB-75 CNS = test system: SNB-75 CNS
TK-10 renal = test system: TK-10 renal
NCI-H460 NSCLC = test system: NCI-H460 NSCLC
BT-549 breast = test system: BT-549 breast
SF-295 CNS = test system: SF-295 CNS
M14 melanoma = test system: M14 melanoma
HL-60(TB) leukemia = test system: HL-60(TB) leukemia
UACC-62 melanoma = test system: UACC-62 melanoma
SW-620 colon = test system: SW-620 colon
COLO 205 colon = test system: COLO 205 colon
MDA-MB-468 breast = test system: MDA-MB-468 breast

C[C@H](c1ccc(F)cc1CCCC(=O)O)N(c1cc(F)ccc1F)S(=O)(=O)c1ccc(Cl)cc1
GI50 (SK-MEL-5 melanoma): 13.1 µM | TGI (SK-MEL-5 melanoma): 29.7 µM | GI50 (OVCAR-3 ovarian): 17.9 µM | TGI (OVCAR-3 ovarian): 38 µM | GI50 (RXF 393 renal): 27.9 µM | TGI (RXF 393 renal): > 100 µM | GI50 (CAKI-1 renal): 45.9 µM | TGI (CAKI-1 renal): > 100 µM | GI50 (SK-OV-3 ovarian): 32.8 µM | TGI (SK-OV-3 ovarian): > 100 µM | GI50 (OVCAR-5 ovarian): 38.5 µM | TGI (OVCAR-5 ovarian): > 100 µM | GI50 (A498 renal): 20.2 µM | TGI (A498 renal): 69.3 µM | GI50 (PC-3 prostate): 22.7 µM | TGI (PC-3 prostate): 66.8 µM | GI50 (IGROV1 ovarian): 30.5 µM | TGI (IGROV1 ovarian): > 100 µM | GI50 (KM12 colon): 28.7 µM | TGI (KM12 colon): > 100 µM | GI50 (SK-MEL-28 melanoma): 46 µM | TGI (SK-MEL-28 melanoma): > 100 µM | GI50 (EKVX NSCLC): 21.6 µM | TGI (EKVX NSCLC): 63.1 µM | GI50 (HCT-116 colon): 20.2 µM | TGI (HCT-116 colon): 43.8 µM | GI50 (HS 578T breast): 12.2 µM | TGI (HS 578T breast): 33.3 µM | GI50 (NCI-H23 lung): 14.9 µM | TGI (NCI-H23 lung): 41.6 µM | GI50 (786-0 renal): 28.9 µM | TGI (786-0 renal): > 100 µM | GI50 (A549 NSCLC): 16.1 µM | TGI (A549 NSCLC): 46.2 µM | GI50 (DU-145 prostate): 28.2 µM | TGI (DU-145 prostate): > 100 µM | GI50 (SNB-75 CNS): 26.2 µM | TGI (SNB-75 CNS): > 100 µM | GI50 (TK-10 renal): 31.1 µM | TGI (TK-10 renal): > 100 µM | GI50 (NCI-H460 NSCLC): 17.2 µM | TGI (NCI-H460 NSCLC): 33.8 µM | GI50 (BT-549 breast): 18.8 µM | TGI (BT-549 breast): 42 µM | GI50 (SF-295 CNS): 17.7 µM | TGI (SF-295 CNS): 49.7 µM | GI50 (M14 melanoma): 21.4 µM | TGI (M14 melanoma): 70.5 µM | GI50 (HL-60(TB) leukemia): 19.1 µM | TGI (HL-60(TB) leukemia): 33.6 µM | GI50 (UACC-62 melanoma): 16.9 µM | TGI (UACC-62 melanoma): 40.4 µM | GI50 (SW-620 colon): 32.8 µM | TGI (SW-620 colon): > 100 µM | GI50 (COLO 205 colon): 30.1 µM | TGI (COLO 205 colon): > 100 µM | GI50 (MDA-MB-468 breast): 5.35 µM | TGI (MDA-MB-468 breast): 30.3 µM
